Reference: patent US20250360142A1, “NOVEL ATP-SENSITIVE POTASSIUM CHANNEL POTENTIATORS, THEIR PREPARATION AND USE” (RHYTHM PHARMACEUTICALS, INC., priority 2022, published 2025)

How the values were obtained:
EndoC-βH1 Cell Line = assay: GSIS assay in EndoC-βH1 cell line; format: cell-based
Method: (§1) INS-1E, rat pancreatic tumor (insulinoma) cells were used in the GSIS assay. INS-1E cells were thawed and incubated in culture medium (CM) (RPMI 1640+Glucose q.s., HEPES 25 mM, Na-Pyruvat 1 mM, 2-Mercaptoethanol 50 μM, Fetal Calf Serum; heat inactivated (FCS) 10%, Penicillin/Streptomycin 100 U/ml) at 37° C.; 5% CO2 in a humidified atmosphere. 96 welled plates are coated with Matrigel by incubating the plates with 1 ml pre-diluted 1:10 with cold basal medium with 100 μl/well at 37° C. for 1 hour. Matrigel is then removed and replaced with 100 μl CM. Cells are then seeded into the wells as 70 000 cells/well. CM is refreshed with 200 μl fresh CM on the third day. CM is refreshed again with 200 μl fresh CM on the sixth day. GSIS assay is performed on the seventh day and cells in wells are washed with PKrebs®BSA and incubated with 100 μL/well for 2 h. Secretion plates are placed in an incubator at 37° C., 5% C02 and saturated humidity for 60 min. Meanwhile, lysis solution is prepared by adding 1 tablet of protease inhibitor/10 mL TETG solution and kept at 4° C. until the end of the experiment. The other incubation buffers are prepared without adding pharmacological compounds, aliquoted and then placed in a water bath at 37° C. The samples are prepared including negative (βKrebs®B0=0 mM Glucose) and positive controls (PKrebs®B20=20 mM Glucose) and each compound to be tested is diluted in DMSO as having a series of final concentration including 10.00, 4.00, 1.60, 0.64, 0.26, 0.10, 0.04, 0.02 μM.
(§2) After 2 hours of starvation, glucose stimulation and treatments are initiated. KRB Buffer from cells is removed by pipetting. The solutions are homogenized and the cells are treated with 90 µL/well. 10 μl from 10-fold compound dilution is added to the assay plate (final 100 μl/well) according to the following layout for each compound to be tested.
(§3) Incubation time is 40 minutes. Plates are placed in an incubator at 37° C., 5% CO2 and saturated humidity. After incubation, 80 μL of supernatants are collected without disrupting the cell layer and stored at 4° C. or on ice until centrifugation. Remaining medium are removed from each well and 100 μL/well of cold lysis solution is added and incubated for minimum 2 minutes at room temperature. Cell lysis is observed under microscope and waited for maximum for 5 more minutes until the lysis is complete. Cell lysates are collected and all samples including supernatants are centrifuged at 700×g, 5 min at 4° C. 30 μL of each samples are transferred into aliquots for ELISA. ELISA is performed with HTRF Assay Kit comprising an insulin high range kit supplied by Cisbio/Perkin Elmer. 5 μl of each Insulin standard and 5 μl of either supernatant or lysate are transferred on HTRF plate. 40 μl/well of Anti-insulin—XL665 and 20 μl/well of Anti-insulin—EU are added to each well and the plate is read on HTRF compatible reader (fluorescence 620 nm & 665 nm).
GSIS experiments were also performed in other cell lines, e.g., EndoC-βH1, a canonical cell line for screening new therapeutic compounds.

INS-1E cells = assay: Glucose stimulated insulin secretion assay (GSIS) in INS-1E cells; format: cell-based, rat; conditions: for % inhibition of Insulin (Average Inhibition (%)) / IC50: INS-1E cell line; for IC50 / inhibition at 10 µM: Rattus norvegicus; for inhibition at 10 µM: INS-1E cells
Method: as §1, §2, §3

IC50 (EndoC-βH1 Cell Line)	IC50 (INS-1E cells)	Structure (SMILES)	% inhibition of Insulin (Average Inhibition (%)) (INS-1E cells)	inhibition at 10 µM (INS-1E cells)
1000 to 2000 nM		C[C@@H]1CC1NC1=NS(=O)(=O)c2cc(F)c(Cl)cc2N1 (mixture of isomers) [Compound 25, (rac)-trans-6-chloro-7-fluoro-3-((2-methylcyclopropyl)amino)-4H-benzo[e][1,2,4|thiadiazine 1,1-dioxide]	C (C is equal to 10-25% inhibition)	
< 500 nM	500 to 1000 nM	O=S1(=O)N=C(NC23CC(C2)C3)Nc2ccc(F)cc21 [Compound 1, 3-(bicyclo[1.1.1]pentan-1-ylamino)-7-fluoro-4H-benzo[e][1,2,4] thiadiazine 1,1-dioxide]		≥ 50%
< 500 nM	< 500 nM	O=S1(=O)N=C(NC23CC(C2)C3)Nc2cc(Cl)c(F)cc21 [Compound 14, 3-(bicyclo[1.1.1]pentan-1-ylamino)-6-chloro-7-fluoro-4H-benzo[e][1,2,4] thiadiazine 1,1-dioxide]		≥ 50%
< 500 nM	< 500 nM	O=S1(=O)N=C(NC2CC23CCC3)Nc2cc(Cl)c(F)cc21 (stereo not shown) [Compound 15, 6-chloro-7-fluoro-3-(spiro[2.3]hexan-1-ylamino)-4H-benzo[e][1,2,4]thiadiazine 1,1-dioxide]		
≥ 2000 nM		O=S1(=O)N=C(NC23CC(F)(C2)C3)Nc2cc(Cl)c(F)cc21 [Compound 19, 6-chloro-7-fluoro-3-((3-fluorobicyclo[1.1.1]pentan-1-yl)amino)-4H-benzo[e][1,2,4]thiadiazine 1,1-dioxide]	C (C is equal to 10-25% inhibition)	
< 500 nM		O=S1(=O)N=C(NC2CC23CC3)Nc2cc(Cl)c(F)cc21 (stereo not shown) [Compound 28, 6-chloro-7-fluoro-3-(spiro[2.2]pentan-1-ylamino)-4H-benzo[e][1,2,4]thiadiazine 1,1-dioxide]		
